Measurements reported in patent EP0536402A1, “PIPERIDINE DERIVATIVE” (NIPPON SHINYAKU COMPANY, LIMITED, priority 1990, dated 1992).
Structures can show the parent of a compound that is named as a salt.

What follows are compounds tested against β -galactosidase (assay: β-galactosidase inhibitory activity (colorimetric, O-nitrophenyl-β-D-galactopyranose substrate)). Conditions: Test Example 1; acetate buffer pH 5.0, 37°C, 15 minutes.
Assay type: biochemical, Aspergillus sp.
Procedure: The assay of this activity was carried out by permitting β -galactosidase to act on the substrate O-nitrophenyl-β -D-galactopyranose and quantitating O-nitrophenol, which was released on hydrolysis, colorimetrically. Thus, a mixture of 0.9 ml of 100 mM acetate buffer (pH 5.0), 0.1 ml of a solution of the test substance (dissolved in 100 mM acetate buffer at pH 5.0) and 0.5 ml of a 20 mM substrate solution was previously warmed at 37°C for […] and, then, dissolved in 10 mM acetate buffer at pH 5.0. Then, 0.5 ml of a solution of β -galactosidase was added and the reaction was conducted at 37°C for 15 minutes. The absorbance (A) at 420 nm was then measured. The absorbance (B) of a reaction mixture not containing the test substance was also measured and using the equation of % inhibition = (B - A)/B x 100 [formula] , the concentration of the test substance causing 50% inhibition of β -galactosidase activity (IC₅₀) was determined. The β -galactosidase derived from Aspergillus sp. was used. It is clear that the compound of the present invention has high β -galactosidase inhibitory activity.

Row | Compound | IC₅₀ [ng/mL]
1 | OC[C@H]1NC[C@H](O)[C@@H](O)[C@H]1O [1-deoxygalactostatin hydrochloride, reference compound] | 451
2 | CN1C[C@H](O)[C@@H](O)[C@@H](O)[C@H]1CO [Example 1, N-methyl-1-deoxygalactostatin] | 15
3 | CCN1C[C@H](O)[C@@H](O)[C@@H](O)[C@H]1CO [Example 2, N-ethyl-1-deoxygalactostatin] | 82
4 | CCCN1C[C@H](O)[C@@H](O)[C@@H](O)[C@H]1CO [Example 3, N-n-propyl-1-deoxygalactostatin] | 44
5 | CC(C)CN1C[C@H](O)[C@@H](O)[C@@H](O)[C@H]1CO [Example 4, N-isobutyl-1-deoxygalactostatin] | 40
6 | CCCCCCCN1C[C@H](O)[C@@H](O)[C@@H](O)[C@H]1CO [Example 5, N-n-heptyl-1-deoxygalacto-statin] | 32
7 | CCCCCCCCCCCCN1C[C@H](O)[C@@H](O)[C@@H](O)[C@H]1CO [Example 6, N-n-dodecyl-1-deoxygalactostatin] | 23
8 | OC[C@@H]1[C@H](O)[C@H](O)[C@@H](O)CN1CCCc1ccccc1 [Example 7, N-(3-phenylpropyl)-1-deoxygalactostatin] | 88
9 | OC[C@@H]1[C@H](O)[C@H](O)[C@@H](O)CN1Cc1ccc(Cl)cc1 [Example 8, N-p-chlorobenzyl-1-deoxygalactostatin] | 180
10 | C=CCN1C[C@H](O)[C@@H](O)[C@@H](O)[C@H]1CO [Example 9, N-allyl-1-deoxygalactostatin] | 187
11 | OC[C@@H]1[C@H](O)[C@H](O)[C@@H](O)CN1CC=Cc1ccccc1 [Example 10, N-cinnamyl-1-deoxygalactostatin] | 175

Same assay, conditions: Test Example 2; acetate buffer pH 5.0, 37°C, 15 minutes

Row | Compound | IC₅₀ [ng/mL]
12 | OC[C@H]1NC[C@H](O)[C@@H](O)[C@H]1O [1-deoxygalactostatin hydrochloride, reference compound] | 440
13 | COCCN1C[C@H](O)[C@@H](O)[C@@H](O)[C@H]1CO [Example 11, N-methoxyethyl-1-deoxygalactostatin] | 59
14 | OC[C@@H]1[C@H](O)[C@H](O)[C@@H](O)CN1Cc1ccc(-c2ccccc2)cc1 [Example 12, N-(p-phenylbenzyl)-1-deoxygalactostatin] | 166
15 | CCCCCN1C[C@H](O)[C@@H](O)[C@@H](O)[C@H]1CO [Example 13, N-n-pentylnyl-1-deoxygalactostatin] | 113
16 | COc1ccc(CN2C[C@H](O)[C@@H](O)[C@@H](O)[C@H]2CO)cc1 [Example 14, N-p-methoxybenzyl-1-deoxygalactostatin] | 391
17 | CSc1ccc(CN2C[C@H](O)[C@@H](O)[C@@H](O)[C@H]2CO)cc1 [Example 15, N-p-methylthiobenzyl-1-deoxygalactostatin] | 393
18 | OC[C@@H]1[C@H](O)[C@H](O)[C@@H](O)CN1CCc1ccccc1 [Example 16, N-phenylethyl-1-deoxygalactostatin] | 21
19 | OC[C@@H](O)[C@H](O)[C@H](O)[C@@H](O)CN1C[C@H](O)[C@@H](O)[C@@H](O)[C@H]1CO [Example 17, N-(1'-deoxygalactitoyl)-1-deoxygalactostatin] | 49
20 | CC(=O)Nc1ccc(CN2C[C@H](O)[C@@H](O)[C@@H](O)[C@H]2CO)cc1 [Example 18, N-(p-acetamidobenzyl)-1-deoxygalactostatin] | 340
21 | OC[C@@H]1[C@H](O)[C@H](O)[C@@H](O)CN1CC1CCCCC1 [Example 20, N-cyclohexylmethyl-1-deoxygalactostatin] | 37
22 | CSCCCN1C[C@H](O)[C@@H](O)[C@@H](O)[C@H]1CO [Example 21, N-(3'-methylthiopropyl)-1-deoxygalactostatin] | 49
23 | COc1ccc(CN2C[C@H](O)[C@@H](O)[C@@H](O)[C@H]2CO)cc1C [Example 22, N-(3'-methyl-4'-methoxybenzyl)-1-deoxygalactostatin] | 359
24 | CCCCN1C[C@H](O)[C@@H](O)[C@@H](O)[C@H]1CO [Example 23, N-n-butyl-1-deoxygalactostatin] | 154
25 | O=C(O)CCCN1C[C@H](O)[C@@H](O)[C@@H](O)[C@H]1CO [Example 24, N-(3-carboxypropyl)-1-deoxygalactostatin] | 351
